Results taken from patent US20250091989A1, “SMALL MOLECULE PROTEIN SYNTHESIS MODULATORS” (Interdict Bio, Inc., priority 2023, published 2025).

Columns and labels:
Type in all cases: biochemical
Settings in all cases: HeLa S3 lysate, sfGFP/mCherry ratio, 2 hrs at 30° C.
ALK = experiment: In vitro transcription-translation (IVTT) reporter assay, ALK test sequence
Method in brief: (§1)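 Coupled transcription-translation in HeLa S3 lysate with reporter plasmids encoding mCherry-P2A-3×FLAG-TEST-sfGFP behind an EMCV IRES. Compounds were half-log titrated (30 μM-0.1 μM in DMSO dilution plate) into master mix, then DNA was added. Reactions ran 2 hrs at 30° C, were PBS-quenched and read for fluorescence.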

KRAS G12D = experiment: In vitro transcription-translation (IVTT) reporter assay, KRAS G12D test sequence
Excerpt: All reporter constructs have been cloned into the pT7CFE1-CHis plasmid (ThermoFisher #88860) using Gibson assembly procedures (NEB #E2611L). The parental pT7CFE1-CHis plasmid contains an EMCV IRES at the 5′UTR for translation initiation, a multiple-cloning site (MCS) for gene insertion, an optional C-terminal His-epitope tag, and polyA sequence in the 3′UTR to regulate mRNA stability. All reporters are designed to be inserted at the MCS to include a red fluorescent protein (mCherry), P2A self-cleaving peptide which releases the preceding mCherry protein product, and a fusion open reading frame containing a 3×FLAG epitope, a peptide sequence of interest (TEST), and green fluorescent protein (sfGFP).
Construct Plasmid Preparation: All plasmids are isolated from MACH1 cells (ThermoFisher) grown overnight in ampicillin-containing luria broth, and purified using ZymoPure Express Plasmid Midiprep Kit (Zymo Research). Constructs are sequenced verified and diluted to a working concentration of 110 ng/μL.
HeLa S3 Lysate Preparation: HeLa S3 cell pellets are acquired from Ipracell/Ipratech (Belgium) and shipped as 4 mL frozen cell pellets on dry ice for storage at −80° C. until use. The procedure for lysate preparation is as follows. Prepare 1× Lysis Buffer, cold and stored on ice:
Each preparation takes 8 cell pellets (4 ml packed volume each, approximately 1.0×10^9 cells per pellet). Thaw cell pellets from −80° C. on ice for 90 mins. Lay pellets horizontally on top of the ice and rotate every 30 mins to ensure even thawing. Once thawed, add 4 mL of cold lysis buffer to each pellet, and using a serological pipet, gently pipet up and down to break up clumps. Incubate resuspended cells in ice for an additional 30 mins (plunged into ice). During 30 min incubation, rinse and RNase-zap (Ambion) glass dounces (use loose pestle “A”), gently dry and place on ice until needed. Prepare RNase-free Eppendorf tubes for spinning and for batch storage. Add batch labels to 1.5-1.7 mL RNase-free microcentrifuge tubes (labeling scheme below). Each batch will have an extra 1.5-1.7 mL RNase-free microcentrifuge tube for 40 μL of lysate, label the top of this tube (labeling scheme below). After 30 min incubation, transfer all 8 mL of cell pellet to dounce. Cell lysis is complete after douncing 100 times. Aliquot cell lysis into 1.5-1.7 mL temporary-microcentrifuge tubes. Place tubes in centrifuge with “fins” out, and spin at 1,200 xg for 5 mins. After the first spin use a 1 mL pipet to resuspend each tube and repeat spin. This acts as an additional lysis step, is more vigorous and increases lysate yield. During second spin get liquid N2 and a fresh conical tube on ice.
After spin is complete, transfer supernatant (lysate) from microcentrifuge tubes into the 50 mL conical tube and keep on ice. Repeat steps 10-14 for all other cell pellets until completed. Once all cell lysate has been transferred to the 50 mL conical tube pipet to mix so the solution is homogenous. Transfer 1 mL of lysate into batch-labeled microcentrifuge tubes and flash freeze in liquid nitrogen. Be sure to pipet up and down to mix throughout transfer step. Place all tubes in the […] for long-term storage.
In vitro transcription-translation assay setup: Each assay includes a master mix containing lysate and shared components, a 96-well plate containing compound titrations for testing, a 96-well DNA plate with reporter constructs to be tested, 96-well skirted PCR plates, and 96-well flat-bottom, black, fluorescent assay plates. […]

MYC = experiment: In vitro transcription-translation (IVTT) reporter assay, MYC test sequence
Method in brief: as §1

Compound | IC50 (ALK) [µM] | IC50 (KRAS G12D) [µM] | IC50 (MYC) [µM]
COc1ccc(C[C@H]2NC[C@H](O)[C@H]2OC(=O)CC(C)(C)O)cc1 [V186784, (2R,3S,4S)-4-hydroxy-2-[(4-methoxyphenyl)methyl]pyrrolidin-3-yl 3-hydroxy-3-methylbutanoate] | < 10 | 10 to 20 | < 10
COc1ccc(C[C@H]2NC[C@H](O)[C@H]2OC(=O)C2CNC2)cc1 [V0107, (2R,3S,4S)-4-hydroxy-2-[(4-methoxyphenyl)methyl]pyrrolidin-3-yl azetidine-3-carboxylate] | 20 to 30 | > 30 | > 30
COc1ccc(C[C@H]2NC[C@H](O)[C@H]2OC(=O)c2ccc(S(=O)(=O)N(C)C)cc2)cc1 [V000198, (2R,3S,4S)-4-hydroxy-2-[(4-methoxyphenyl)methyl]pyrrolidin-3-yl 4-(dimethylsulfamoyl)benzoate] | > 30 | > 30 | > 30
COc1ccc(C[C@H]2NC[C@H](O)[C@H]2OC(=O)CCCN2CCNCC2)cc1 [V187694, (2R,3S,4S)-4-hydroxy-2-[(4-methoxyphenyl)methyl]pyrrolidin-3-yl 4-(piperazin-1-yl)butanoate] | < 10 | 10 to 20 | < 10
COc1ccc(C[C@H]2NC[C@H](O)[C@H]2OC(=O)CC[C@@H]2NC(=O)CNC2=O)cc1 [V000144, (2R,3S,4S)-4-hydroxy-2-[(4-methoxyphenyl)methyl]pyrrolidine-3-yl 3-[(2S)-3,6-dioxopiperazin-2-yl]propanoate] | < 10 | > 30 | < 10
COc1ccc(C[C@H]2NC[C@H](O)[C@H]2OC(=O)Cc2nnn[nH]2)cc1 [V187533, (2R,3S,4S)-4-hydroxy-2-[(4-methoxyphenyl)methyl]pyrrolidin-3-yl 2-(1H−1,2,3,4-tetrazol-5-yl)acetate; trifluoroacetic acid] | < 10 | > 30 | 10 to 20
CC(=O)O[C@@H]1[C@@H](O)CN[C@@H]1Cc1ccc(C#N)cc1 [V187006, (2R,3S,4S)-2-[(4-cyanophenyl)methyl]-4-hydroxypyrrolidin-3-yl acetate; trifluoroacetic acid] | < 10 | < 10 | < 10
COc1ccc(C[C@H]2NC[C@H](O)[C@H]2OC(=O)COCc2ccon2)cc1 [V187368, (2R,3S,4S)-4-hydroxy-2-[(4-methoxyphenyl)methyl]pyrrolidin-3-yl 2-(1,2-oxazol-3-ylmethoxy)acetate] | < 10 | < 10 | < 10
COc1ccc(C[C@H]2NC[C@H](O)[C@H]2OC(=O)CCC(F)(F)F)cc1 [V187163, (2R,3S,4S)-4-hydroxy-2-[(4-methoxyphenyl)methyl]pyrrolidin-3-yl 4,4,4-trifluorobutanoate; trifluoroacetic acid] | < 10 | < 10 | < 10
COc1ccc(C[C@H]2NC[C@H](O)[C@H]2OC(=O)CCC2CC2)cc1 [V187063, (2R,3S,4S)-4-hydroxy-2-[(4-methoxyphenyl)methyl]pyrrolidin-3-yl 3-cyclopropylpropanoate; trifluoroacetic acid] | < 10 | < 10 | < 10
COc1ccc(C[C@H]2NC[C@H](O)[C@H]2OC(=O)CCC2CCOCC2)cc1 [V186990, (2R,3S,4S)-4-hydroxy-2-[(4-methoxyphenyl)methyl]pyrrolidin-3-yl 3-(oxan-4-yl)propanoate; trifluoroacetic acid] | < 10 | < 10 | < 10
COc1ccc(C[C@H]2NC[C@H](O)[C@H]2OC(=O)Cc2cc3ccccc3s2)cc1 [V187053, (2R,3S,4S)-4-hydroxy-2-[(4-methoxyphenyl)methyl]pyrrolidin-3-yl 2-(1-benzothiophen-2-yl)acetate] | < 10 | < 10 | < 10
COc1ccc(C[C@H]2NC[C@H](O)[C@H]2OC(=O)C2CC(F)C2)cc1 (stereo partly drawn) [V187166, (2R,3S,4S)-4-hydroxy-2-[(4-methoxyphenyl)methyl]pyrrolidin-3-yl 3-fluorocyclobutane-1-carboxylate; trifluoroacetic acid] | < 10 | < 10 | < 10
COc1ccc(C[C@H]2NC[C@H](O)[C@H]2OC(=O)C(C)(C)O)cc1 [V186785, (2R,3S,4S)-4-hydroxy-2-[(4-methoxyphenyl)methyl]pyrrolidin-3-yl 2-hydroxy-2-methylpropanoate] | < 10 | > 30 | > 30
COc1ccc(C[C@H]2NC[C@H](O)[C@H]2OC(=O)c2ccc(C(=O)C(F)(F)F)cc2)cc1 [V0092, (2R,3S,4S)-4-hydroxy-2-[(4-methoxyphenyl)methyl]pyrrolidin-3-yl 4-(2,2,2-trifluoroacetyl)benzoate] | > 30 | > 30 | > 30
COc1ccc(C[C@H]2NC[C@H](O)[C@H]2OC(=O)C2CC(=O)N2)cc1 (stereo partly drawn) [V186864, (2R,3S,4S)-4-hydroxy-2-[(4-methoxyphenyl)methyl]pyrrolidin-3-yl 4-oxoazetidine-2-carboxylate; trifluoroacetic acid] | < 10 | > 30 | 10 to 20
CC(=O)O[C@@H]1[C@@H](O)CN[C@@H]1Cc1ccc(-c2cn(-c3ccccc3)nn2)cc1 [V187731] | < 10 | < 10 | < 10
COc1ccc(C[C@H]2NC[C@H](O)[C@H]2OC(=O)C2CC(F)(F)C2)cc1 [V186775, (2R,3S,4S)-4-hydroxy-2-[(4-methoxyphenyl)methyl]pyrrolidin-3-yl 3,3-difluorocyclobutane-1-carboxylate] | < 10 | 20 to 30 | < 10
COc1ccc(C[C@H]2NC[C@H](O)[C@H]2OC(=O)C2CC3(C2)CC(N(C)C)C3)cc1 (stereo partly drawn) [V187066, (2R,3S,4S)-4-hydroxy-2-[(4-methoxyphenyl)methyl]pyrrolidin-3-yl 6-(dimethylamino)spiro[3.3]heptane-2-carboxylate] | 10 to 20 | > 30 | > 30
COc1ccc(C[C@H]2NC[C@H](O)[C@H]2OC(=O)CC[C@@H]2NC(=O)C3(CNC3)NC2=O)cc1 [V187324, (2R,3S,4S)-4-hydroxy-2-[(4-methoxyphenyl)methyl]pyrrolidin-3-yl 3-[(7S)-6,9-dioxo-2,5,8-triazaspiro[3.5]nonan-7-yl]propanoate] | > 30 | > 30 | 20 to 30
COc1ccc(C[C@H]2NC[C@H](O)[C@H]2OC(=O)C2CN(C(C)=O)C2)cc1 [V186866, (2R,3S,4S)-4-hydroxy-2-[(4-methoxyphenyl)methyl]pyrrolidin-3-yl 1-acetylazetidine-3-carboxylate] | < 10 | > 30 | 10 to 20
C=C(F)C(=O)O[C@@H]1[C@@H](O)CN[C@@H]1Cc1ccc(OC)cc1 [V0081, (2R,3S,4S)-4-hydroxy-2-[(4-methoxyphenyl)methyl]pyrrolidin-3-yl 2-fluoroprop-2-enoate] | > 30 | > 30 | > 30
COc1ccc(C[C@H]2NC[C@H](O)[C@H]2OC(=O)CCc2cscn2)cc1 [V187173, (2R,3S,4S)-4-hydroxy-2-[(4-methoxyphenyl)methyl]pyrrolidin-3-yl 3-(1,3-thiazol-4-yl)propanoate] | < 10 | < 10 | < 10
